Measured values taken from patent publication US8916605B2, “Compounds and methods for treating cancer and viral infections” (priority 2009, dated 2014).

Assays:
[1] = test system: Influenza B (strain B/Lee/40); assay: Anti-influenza cytopathic effect (CPE) assay in MDCK cells, prophylactic regimen (Example 7); format: cell-based; set-up: key to CPE score: 1: Complete monolayer with few gaps or dead cells; 2: Some gaps in the monolayer; dead cells more evident; 3: Increasing number of gaps in the monolayer concurrent with dead cells; 4: Gaps widely distributed throughout the monolayer and of increasing size; 5: Large holes forming as smaller gaps merge; copious dead cells evident; 6: Monolayer integrity lost. Small islands of attached cells amid predominantly dead cells; settings: for CPE score: Influenza B, MDCK, virus + DMSO control 4
MDCK cells = assay: Cytotoxicity assay (MTT/CIMA) in MDCK cells (Example 7)
[2] = test system: SH-SY5Y neuroblastoma cells; assay: MTT (CIMA) cell proliferation assay, acute and chronic exposure (Example 3); settings: SH-SY5Y
Procedure: (§5) Compound preparation: Stock solutions of test compounds were prepared in dimethylsulfoxide (DMSO) at 250 mg/ml. Working concentrations of 10 mg/ml were subsequently prepared from the stock solution and stored in 50 μl aliquots at −20° C. until used.
(§6) Cells and cell culture: Proof-of-principle studies in this example focused on two human brain cancer cell lines, namely SH-SY5Y neuroblastoma cells and U373 astroglioma cells. […] Both cells were maintained in (50:50) F12:DMEM medium supplemented with 10% fetal calf serum (FCS) and antibiotics in a humidified, 5% CO2 environment. Cells were passaged as required by trypsinization.
(§7) Assays conditions: The effects of the test compounds were assessed following acute and chronic exposure conditions. […] The test compounds were evaluated over a broad range of concentrations (0, 0.5, 1, 5, 10, 50, 100 and 250 μg/ml) with cells treated with equivalent concentrations of vehicle (DMSO) serving as controls.
(§8) Cell proliferation assay: Cell proliferation was assessed using a standard colorimetric indicator of metabolic activity (CIMA) assay. In this assay, the reduction of yellow tetrazolium salt (MTT) to purple formazan by mitochondrial reductase enzymes in viable cells was evaluated as a measure of metabolic activity to determine the extent of cell proliferation within a culture. The resulting colour change that conferred a change in absorbance was quantified using a spectrophotometer (λ=500-600). Samples were diluted as required to ensure that values obtained with the MTT assay fell within the linear range of the protocol. Qualitative microscopic evaluation of treated cultures was used to determine if overt cytotoxicity was present and to supplement the quantitative CIMA data.

U373 astroglioma cells [3] = assay: Long term exposure, tetrazole reduction (CIMA) proliferation assay (Example 6); format: cell-based
Procedure: (§1) Compound I(a) was termed CMPD A (LI568-026-02).
(§2) Cells were passaged as required by trypsinization.
(§3) Assay conditions: The effects of the test compound were assessed under long term exposure conditions. Cells were propagated as normal in T25 flasks in complete culture media supplemented with comparatively low concentrations of the compound (0, 1 and 5 μg/ml) for 28 days. At various times post-exposure, changes in proliferation rates were assessed using a standard CIMA assay.
(§4) For the current study, cells that have been exposed to the compound were seeded in 96-well plates and proliferation rates measured over 24 and 72 h periods for comparison to that of similarly aged untreated cells.

[4] = test system: SH-SY5Y neuroblastoma cells; assay: as above; format: cell-based; settings: for AVERAGE (mean absorbance): SHSY5Y
Procedure: as §1, §2, §3, §4

NSC34 motor neurons = assay: MTT (CIMA) cell proliferation assay (Example 4); settings: 72 h post-treatment
Procedure: as §5
(§9) Cells and cell culture: Three classes of cells were evaluated: 1) neuroblastoma cells, 2) neuroglioma cells, and 3) non-transformed human neurons (see below). All cells were maintained in appropriate culture medium supplemented with 10% fetal calf serum (FCS) and antibiotics in a humidified, 5% CO2 environment. Cells were passaged as required by trypsinization.
(§10) Assay conditions: The effects of the test compounds were assessed following acute and chronic exposure conditions. […] Each compound was evaluated over a broad range of concentrations (0, 0.5, 1, 5, 10, 50, 100 and 250 μg/ml) with cells treated with equivalent concentrations of vehicle (DMSO) serving as controls.
(§11) Cell proliferation assay: Cell proliferation was assessed using a standard colorimetric indicator of metabolic activity (CIMA) assay. In this assay, the reduction of yellow tetrazolium salt (MTT) to purple formazan by mitochondrial reductase enzymes in viable cells was evaluated as a measure of metabolic activity to determine the extent of cell proliferation within a culture. […]

U373 astroglioma cells [5] = assay: MTT (CIMA) cell proliferation assay, acute and chronic exposure (Example 3)
Procedure: as §5, §6, §7, §8

[6] = test system: all three transformed neuronal cell lines (IMR32, NG108, NSC34); assay: MTT (CIMA) cell proliferation assay (Example 4); settings: 72 h post-treatment; 0.5-250 μg/ml
Procedure: as §5, §9, §10, §11

[7] = test system: Influenza A (strain A/PR/8/34); assay: Anti-influenza cytopathic effect (CPE) assay in MDCK cells, prophylactic regimen (Example 7); format: cell-based; set-up: key to CPE score: 1: Complete monolayer with few gaps or dead cells; 2: Some gaps in the monolayer; dead cells more evident; 3: Increasing number of gaps in the monolayer concurrent with dead cells; 4: Gaps widely distributed throughout the monolayer and of increasing size; 5: Large holes forming as smaller gaps merge; copious dead cells evident; 6: Monolayer integrity lost. Small islands of attached cells amid predominantly dead cells; settings: for CPE score: Influenza A, MDCK
[8] = both acute and chronic regimens

## O=CCCCN1C(=O)c2ccccc2C1=O [Compound I(a), 4-(1,3-dioxo-1,3-dihydro-2H-isoindol-2-yl)butanal]
[1]; Influenza B infection
  effect on CPE (summary in words): mild to moderate reduction in CPE
[1]; 24 hpi, 0.5 μg/ml
  CPE score: 3
[1]; 24 hpi, 1.0 μg/ml
  CPE score: 3
[1]; 24 hpi, 5.0 μg/ml
  CPE score: 2
[1]; 24 hpi, 10 μg/ml
  CPE score: 2
[1]; 24 hpi, 25 μg/ml
  CPE score: 4
[1]; 24 hpi, 50 μg/ml
  CPE score: 4
[1]; 24 hpi, 100 μg/ml
  CPE score: 5
[1]; 48 hpi, 0.5 μg/ml
  CPE score: 3
[1]; 48 hpi, 1.0 μg/ml
  CPE score: 3
[1]; 48 hpi, 5.0 μg/ml
  CPE score: 3
[1]; 48 hpi, 10 μg/ml
  CPE score: 3
[1]; 48 hpi, 25 μg/ml
  CPE score: 4
[1]; 48 hpi, 50 μg/ml
  CPE score: 5
[1]; 48 hpi, 100 μg/ml
  CPE score: 6
MDCK cells; 24 h exposure, 0.5 μg/ml
  Toxicity (MTT), fold changes relative to vehicle controls: 1.09 fold
MDCK cells; 24 h exposure, 1.0 μg/ml
  Toxicity (MTT), fold changes relative to vehicle controls: 1.24 fold
MDCK cells; 24 h exposure, 5.0 μg/ml
  Toxicity (MTT), fold changes relative to vehicle controls: 1.18 fold
MDCK cells; 24 h exposure, 10 μg/ml
  Toxicity (MTT), fold changes relative to vehicle controls: 1.15 fold
MDCK cells; 24 h exposure, 25 μg/ml
  Toxicity (MTT), fold changes relative to vehicle controls: 1.06 fold
MDCK cells; 24 h exposure, 50 μg/ml
  Toxicity (MTT), fold changes relative to vehicle controls: 1.08 fold
MDCK cells; 24 h exposure, 100 μg/ml
  Toxicity (MTT), fold changes relative to vehicle controls: 0.98 fold
MDCK cells; 72 h exposure, 0.5 μg/ml
  Toxicity (MTT), fold changes relative to vehicle controls: 1.05 fold
MDCK cells; 72 h exposure, 1.0 μg/ml
  Toxicity (MTT), fold changes relative to vehicle controls: 0.99 fold
MDCK cells; 72 h exposure, 5.0 μg/ml
  Toxicity (MTT), fold changes relative to vehicle controls: 1.15 fold
MDCK cells; 72 h exposure, 10 μg/ml
  Toxicity (MTT), fold changes relative to vehicle controls: 1.01 fold
MDCK cells; 72 h exposure, 25 μg/ml
  Toxicity (MTT), fold changes relative to vehicle controls: 0.96 fold
MDCK cells; 72 h exposure, 50 μg/ml, decreases exceeding 25% considered toxic
  Toxicity (MTT), fold changes relative to vehicle controls: 0.71^3 fold
MDCK cells; 72 h exposure, 100 μg/ml, decreases exceeding 25% considered toxic
  Toxicity (MTT), fold changes relative to vehicle controls: 0.56 fold
MDCK cells; higher concentrations (≧25 μg/ml)
  cytotoxicity (summary in words): toxicity associated with the compound itself
[2]; acute treatment (24 h), 0.25 mg/ml
  decrease in MTT activity: approximately 30%
[2]; acute treatment (24 h), other concentrations evaluated (below 0.25 mg/ml)
  change in MTT activity: No significant change in MTT activity
[2]; [8]
  LD50: exceeds 0.25 mg/ml
[2]; chronic treatment (72 h), 50 μg/ml
  decrease in MTT activity: 25%
[2]; chronic treatment (72 h), 100 μg/ml
  decrease in MTT activity: 25%
[2]; chronic treatment (72 h), 250 μg/ml
  decrease in MTT activity: 25%
U373 astroglioma cells [3]; 14 d incubation with 1 μg/ml, 24 h, control 0 μg/ml 0.569
  AVERAGE (mean absorbance): 0.446
U373 astroglioma cells [3]; 14 d incubation with 5 μg/ml, 24 h, control 0 μg/ml 0.569
  AVERAGE (mean absorbance): 0.437
U373 astroglioma cells [3]; 21 d incubation with 1 μg/ml, 24 h, control 0 μg/ml 0.617
  AVERAGE (mean absorbance): 0.575
U373 astroglioma cells [3]; 21 d incubation with 1 μg/ml, 72 h, control 0 μg/ml 0.547
  AVERAGE (mean absorbance): 0.502
U373 astroglioma cells [3]; 21 d incubation with 5 μg/ml, 24 h, control 0 μg/ml 0.617
  AVERAGE (mean absorbance): 0.539
U373 astroglioma cells [3]; 21 d incubation with 5 μg/ml, 72 h, control 0 μg/ml 0.547
  AVERAGE (mean absorbance): 0.478
U373 astroglioma cells [3]; 28 d incubation with 1 μg/ml, 24 h, control 0 μg/ml 0.567
  AVERAGE (mean absorbance): 0.510
U373 astroglioma cells [3]; 28 d incubation with 1 μg/ml, 72 h, control 0 μg/ml 0.598
  AVERAGE (mean absorbance): 0.507
U373 astroglioma cells [3]; 28 d incubation with 5 μg/ml, 24 h, control 0 μg/ml 0.567
  AVERAGE (mean absorbance): 0.461
U373 astroglioma cells [3]; 28 d incubation with 5 μg/ml, 72 h, control 0 μg/ml 0.598
  AVERAGE (mean absorbance): 0.514
U373 astroglioma cells [3]; long term exposure up to 28 days, 1 and 5 μg/ml
  average decrease in activity: approximately 20%
[4]; SH-SY5Y, long term exposure up to 28 days, 1 and 5 μg/ml
  average decrease in activity: approximately 20%
[4]; 14 d incubation with 1 μg/ml, 24 h, control 0 μg/ml 0.492
  AVERAGE (mean absorbance): 0.508
[4]; 14 d incubation with 5 μg/ml, 24 h, control 0 μg/ml 0.492
  AVERAGE (mean absorbance): 0.388
[4]; 21 d incubation with 1 μg/ml, 24 h, control 0 μg/ml 0.307
  AVERAGE (mean absorbance): 0.311
[4]; 21 d incubation with 1 μg/ml, 72 h, control 0 μg/ml 0.300
  AVERAGE (mean absorbance): 0.268
[4]; 21 d incubation with 5 μg/ml, 24 h, control 0 μg/ml 0.307
  AVERAGE (mean absorbance): 0.277
[4]; 21 d incubation with 5 μg/ml, 72 h, control 0 μg/ml 0.300
  AVERAGE (mean absorbance): 0.269
[4]; 28 d incubation with 1 μg/ml, 24 h, control 0 μg/ml 0.601
  AVERAGE (mean absorbance): 0.597
[4]; 28 d incubation with 1 μg/ml, 72 h, control 0 μg/ml 0.489
  AVERAGE (mean absorbance): 0.389
[4]; 28 d incubation with 5 μg/ml, 24 h, control 0 μg/ml 0.601
  AVERAGE (mean absorbance): 0.531
[4]; 28 d incubation with 5 μg/ml, 72 h, control 0 μg/ml 0.489
  AVERAGE (mean absorbance): 0.423
NSC34 motor neurons
  LD50: < 0.25 mg/mL
U373 astroglioma cells [5]; acute (24 h) and chronic (72 h) treatment, 0.5-250 μg/ml
  overt cell death / reductions in MTT activity: Neither overt cell death nor significant reductions in MTT activity
U373 astroglioma cells [5]; [8]
  LD50: exceeds 0.25 mg/ml
[6]
  viability/proliferation: dose-dependent decreases in viability/proliferation
[7]; 0.5 μg/ml, virus + DMSO control 3
  CPE score: 1 ^5
[7]; 0.5 μg/ml, virus + DMSO control 4
  CPE score: 4
[7]; 1.0 μg/ml, virus + DMSO control 3
  CPE score: 1
[7]; 1.0 μg/ml, virus + DMSO control 4
  CPE score: 3
[7]; 5.0 μg/ml, virus + DMSO control 3
  CPE score: 1
[7]; 5.0 μg/ml, virus + DMSO control 4
  CPE score: 3
[7]; 10 μg/ml, virus + DMSO control 3
  CPE score: 1
[7]; 10 μg/ml, virus + DMSO control 4
  CPE score: 3
[7]; 25 μg/ml, virus + DMSO control 3
  CPE score: 1
[7]; 25 μg/ml, virus + DMSO control 4
  CPE score: 3
[7]; 50 μg/ml, virus + DMSO control 3
  CPE score: 3
[7]; 50 μg/ml, virus + DMSO control 4
  CPE score: 5
[7]; 100 μg/ml, virus + DMSO control 3
  CPE score: 4
[7]; 100 μg/ml, virus + DMSO control 4
  CPE score: 5
[7]; comparatively lower concentrations
  effect on CPE (summary in words): mild to moderate reduction in CPE
